pIC50: −log10 of the molar value. Calls of active or inactive are those of the source. No cut-off for these calls is given here.

Data set [1] concerns dsDNA. Briefly: Stabilization of double strand DNA (unknown origin) assessed as increase in life time of DNA and compound complex at 8.5 uM incubated for 5 mins by fluorescence lifetime study. The class given is nucleic-acid assay.
The subject of data set [2] is PC-3. Briefly: Induction of apoptosis in human PC-3 cells assessed as early apoptic cells at 50 uM after 48 hrs by Annexin V based flow cytometric analysis (reference value: 0.40%). The class given is functional.
For data set [3], the system named is Quadruplex DNA. Briefly: Binding affinity to Tel Q G-quadruplex DNA (unknown origin) assessed as increase in viscosity at 15 uM by EtBr/Hoechst 33342 method. The class given is nucleic-acid assay.
The test system of data set [4] is PC-3. The data set is described as follows: Induction of apoptosis in human PC-3 cells assessed as late apoptic cells at 50 uM after 48 hrs by Annexin V based flow cytometric analysis (reference value: 9.24%). The class given is functional. (A flow cytometer gives signals particle by particle.)
Data set [5] has as its system PC-3. Briefly: Cytotoxicity against human PC3 cells assessed as reduction in cell viability measured after 72 hrs by MTT assay. Particulars: PC-3, 72 h. The class given is functional, cell-based. For orientation: Tetrazolium dyes change colour on reduction, which living cells bring about.
Data set [6] deals with PC-3. Briefly: Induction of apoptosis in human PC-3 cells assessed as late apoptic cells at 55 uM after 48 hrs by Annexin V based flow cytometric analysis (reference value: 9.24%). The class given is functional.
Data set [7] deals with Quadruplex DNA. Briefly: Binding affinity to Tel Q G-quadruplex DNA (unknown origin) assessed as hypsochromic shift at 8.5 uM incubated for 5 mins by UV- vis spectrophotometric analysis. The class given is nucleic-acid assay.
Data set [8] concerns PC-3. Briefly: Induction of cell cycle arrest in human PC3 cells assessed as accumulation at Sub G1 phase at 50 uM after 48 hrs by propidium iodide staining based flow cytometry (reference value: 0.1%). The class given is functional.
Data set [9] has as its system Quadruplex DNA. The data set is described as follows: Binding affinity to c-Myc G-quadruplex DNA (unknown origin) assessed as hypsochromic shift at 8.5 uM incubated for 5 mins by UV- vis spectrophotometric analysis. The class given is nucleic-acid assay.
For another data set, the system named is CHO-K1. The data set is described as follows: Induction of apoptosis in CHO-K1 cells assessed as late apoptic cells at 65 uM after 48 hrs by Annexin V based flow cytometric analysis (reference value: 1.01%). The class given is cell-based, Cricetulus griseus. Particulars: chinese hamster, cho-k1, 48 h.
In data set [10] the test system is dsDNA. The data set is described as follows: Binding affinity to double strand DNA (unknown origin) assessed as increase in viscosity at 15 uM by EtBr/Hoechst 33342 method. The class given is nucleic-acid assay.
Data set [11] deals with PC-3. The data set is described as follows: Induction of cell cycle arrest in human PC3 cells assessed as accumulation at Sub G1 phase at 55 uM after 48 hrs by propidium iodide staining based flow cytometry (reference value: 0.1%). The class given is functional.
For data set [12], the system named is PC-3. Briefly: Induction of apoptosis in human PC-3 cells assessed as early apoptic cells at 55 uM after 48 hrs by Annexin V based flow cytometric analysis (reference value: 0.40%). The class given is functional.
Data set [13] can be described thus: Induction of apoptosis in CHO-K1 cells assessed as viable cells at 65 uM after 48 hrs by Annexin V based flow cytometric analysis (reference value: 93.71%). The note with it: chinese hamster, read-out: Activity. The class given is cell-based, Cricetulus griseus.

The pIC50 is the negative decadic logarithm of the IC50, by convention in mol/L. `O=C(Cn1cc(CSc2nc3cc(OC(F)F)ccc3[nH]2)nn1)NC1CCCCC1`: the outcome in the data set on dsDNA [1] and in the data set on Quadruplex DNA [3] was Active. Further, the Activity came to 0.76% in the data set with PC-3 [2]; 9.39% in the data set with PC-3 [4]; 13.75% in the data set on PC-3 [6]; 2.5 nm in the data set on Quadruplex DNA [7]; 0.1% in the data set with PC-3 [8]; 5 nm in the data set on Quadruplex DNA [9]. Moreover, the Activity in the data set on CHO-K1 came to 2.16%; in the data set with PC-3 [11], 0.8%; in the data set on PC-3 [12], 2.2%. Also, the negative-log IC50 (pIC50) in the data set with PC-3 [5] is 4.27. The outcome with dsDNA [10] was inactive. The viability at 48 h, 65 µM in data set [13] was determined as 84.4%.

(Values after ChEMBL document CHEMBL4732026, “Benzimidazole-1,2,3-triazole hybrid molecules: synthesis and study of their interaction with G-quadruplex DNA” (RSC Med Chem, 2021).)
